Source: patent US9387231B2, “Compositions comprising a Brd4 antagonist and methods for the treatment of HIV” (THE CHILDREN'S HOSPITAL OF PHILADELPHIA, priority 2011, dated 2016)

Columns and labels:
Assay type in all cases: cell-based
[1] = tested on: HIV LTR; assay: Reactivation of the HIV LTR in latently infected J-Lat clones (GFP by flow cytometry); details: J-Lat clones, TNFα 20 ng/ml or PHA 1.5 μg/ml, 16 hours
Method: (§1) GFP expression was measured by flow cytometry. FIGS. 3B and 3C shown the percentage of cells positive for GFP (FIG. 3B) and the mean MFI of GFP (FIG. 3C) in latently infected cell lines, J-Lat clones 82, A72, A7, A2, and A1, at 16 hours after TNFα or PHA was added in the cultures in the presence of JQ1(+) or JQ1(−). […] GFP expression in cells was measured by flow cytometry and is indicated as percent of GFP+ cells in gated live cell populations. An average of 5 experiments is shown. * p<0.05, ** p<0.01, *** p<0.001. […] Average of 3 experiments is shown. * p<0.05. For FIG. 3F, J-Lat A2 and A72 cells were reactivated with TNFα (20 ng/ml) or HIV Tat protein (50 μg/ml) in the presence of JQ1(+) or JQ1(−) for 16-18 hours, and GFP expression in cells was measured by flow cytometry. One representative experiment is shown. In each dot plot, non-underlined numbers indicate percentage of GFP+ cells and underlined numbers indicate mean fluorescence of GFP (MFI).
(§2) Next, the effect of JQ1 on activation of the HIV LTR was tested using a latently infected Jurkat-derived cell clone, J-Lat clone A2. GFP expression in J-Lat clone A2 is induced upon reactivation with tumor necrosis factor-alpha (TNFα) or phytohaemagglutinin (PHA).
To further study the mechanism of how JQ1 drives reactivation of HIV latency, HIV latently infected T-cell lines—J-Lat clones A1, A2, A7, and A72—were utilized. The effect of JQ1(+) on reactivation of HIV latency in these cell lines were confirmed. TNFα (20 ng/ml) or PHA (1.5 μg/ml) was added to cultures of J-Lat clones in the presence of 1 μM JQ1(+) or JQ1(−). After 16 hours, expression of GFP was measured by flow cytometry. […] In the presence of HIV Tat, BET antagonism enhances Tat-driven transcription of the HIV LTR in J-Lat clones A2 and A72 (FIG. 3F; underlined numbers indicate mean GFP fluorescence, non-underlined numbers indicate percent of GFP+ cells). […] Displacement of Brd4 from chromatin by JQ1(+) may cause conformational change in the chromatin, exposing NF-κb binding sites, leading to increased HIV transcription and reactivation of latency.

[2] = tested on: HIV-1 NL43; assay: Viral integration in primary resting CD4 T-cells by Alu-PCR; details: NL43, 1 μM, T48 h
Method: To determine if JQ1(+) affects viral integration in primary resting CD4 T-cells, the cells were purified and infected with HIV-1 NL43 or mock control. The infected cells were then cultured in the presence of 1 μM of JQ1(+) or JQ1(−) for 48 hours. Cell pellets were collected at 0 hours and 48 hours after infection. DNA was isolated and the viral integration in resting CD4 T-cells was measured by Alu-PCR.

[3] = tested on: HIV-1 LTR promoter; assay: Activation of the HIV LTR in CEMss LTR-GFP reporter cells (GFP by flow cytometry); details: CEMss LTR-GFP cells, 8 μg/ml HIV-1 Tat alone
Method: CEMss LTR-GFP cells were infected with NL43 and cultured in the presence of the BET antagonists JQ1(+) (1 μM) or the control enantiomer JQ1(−). GFP expression in cells was examined by flow cytometry. A representative of three experiments is shown. FIG. 2B provides a graph showing GFP expression in cells when cultured with different amounts of JQ1, as determined by flow cytometry. 0.25 μM of JQ1(+) was sufficient to dramatically increase the expression of GFP in NL43 infected CEMss LTR-GFP cells. FIGS. 2C and 2D show percentage of GFP expression (FIG. 2C) and mean fluorescence of GFP (MFI; FIG. 2D) in CEMss LTR-GFP cells cultured in the presence of JQ1(+) or JQ1(−) (1 μM), and different amount of HIV-1 Tat. FIG. 2E provides dot plots of CEMss LTR-GFP cells were cultured with increasing amounts of HIV Tat (0, 8, 16 or 32 μg/ml) in the presence of JQ1(+) or JQ1(−) (1 μM) for 1 day. Non-underlined numbers indicate percentage of GFP and underlined numbers indicate mean fluorescence of GFP (MFI).
as §1
BET antagonists also drive activation of the HIV LTR. Specifically, the effects of JQ1 on transcription from the HIV LTR were tested. CEMss LTR-GFP cells (a reporter cell line stably transfected with GFP under the control of the HIV-1 LTR promoter) were infected with NL43 and cultured in the presence of BET antagonists or controls. GFP expression was measured at days 0, 1, 2, 3, and 6 post-infection. GFP expression was higher in the presence of the BET inhibitor (JQ1) compared to controls (FIG. 2A). Further, by varying the amount of JQ1, it was determined that 0.25 μM of JQ1(+) was sufficient to dramatically increase Tat-driven HIV-1 transcription (FIG. 2B). CEMss LTR-GFP cells were also cultured in the presence of JQ1(+) or JQ1(−) (1 μM) and different amount of HIV-1 Tat (0-32 μg/ml). […] FIG. 2E provides dot plots of the experiments.
as §2

TNFα
GFP expression (reactivation of latently infected cells) [1]: induced GFP expression

Cc1sc2c(c1C)C(c1ccc(Cl)cc1)=N[C@@H](CC(=O)OC(C)(C)C)c1nnc(C)n1-2 [JQ1(−)]
provirus/cell ([2]; Exp. 1, primary resting CD4 T-cells): 0.527 ± 0.064 provirus/cell | provirus/cell ([2]; Exp. 2, primary resting CD4 T-cells): 0.400 ± 0.0009 provirus/cell

B1: HIV-1 Tat: HIV Tat protein added to reporter cell cultures (protein, UniProt P04608 1-86, looked up)
Protein Tat: MEPVDPRLEPWKHPGSQPKTACTNCYCKKCCFHCQVCFITKALGISYGRKKRRQRRRAHQNSQTHQASLSKQPTSQPRGDPTGPKE
Expression of GFP (percentage) [3]: activated
